Measured values from patent EP0489404A2, “Method of treating shock using a potassium channel activator” (E.R. SQUIBB & SONS, INC., priority 1990, dated 1992).
pIC50: −log10 of the molar value.

What was measured:
[1] = test system: Ischemic Isolated Rat Heart; test: Globally ischemic isolated perfused rat heart (Langendorff), protective effect; design: species or system Male Sprague-Dawley rats; LDH (Lactate Dehydrogenase Release), Reperfusion (Post-Ischemic Event): unit not given here; settings: 10 µM; for FLOW (coronary flow), Pre-ischemic Event (Post Drug) / HR (Heart Rate), Pre-ischemic Event (Post Drug) / LVDP (Left Ventricular Developed Pressure), Pre-ischemic Event (Post Drug): after 10 minutes drug treatment, n = 4; for FLOW (coronary flow), Pre-ischemic Event (Post Drug) / HR (Heart Rate), Pre-ischemic Event (Post Drug) / LVDP (Left Ventricular Developed Pressure), Pre-ischemic Event (Post Drug) / DP (Double Product), Pre-ischemic Event (Post Drug): before ischemia; for DP (Double Product), Pre-ischemic Event (Post Drug) / DP (Double Product), Reperfusion (Post-Ischemic Event): HR x LVDP divided by 1000; for DP (Double Product), Pre-ischemic Event (Post Drug): lower = more cardiodepressant; for FLOW (coronary flow), Reperfusion (Post-Ischemic Event) / HR (Heart Rate), Reperfusion (Post-Ischemic Event) / LVDP (Left Ventricular Developed Pressure), Reperfusion (Post-Ischemic Event) / DP (Double Product), Reperfusion (Post-Ischemic Event) / LDH (Lactate Dehydrogenase Release), Reperfusion (Post-Ischemic Event): occlusion 25 minutes, reperfusion 30 minutes; for DP (Double Product), Reperfusion (Post-Ischemic Event): higher = more cardioprotective; for LDH (Lactate Dehydrogenase Release), Reperfusion (Post-Ischemic Event): lower = greater cardioprotection
From the text: Grover et al., "Dissociation of Cardiodepression from Cardioprotection with Calcium Antagonists: Diltiazem Protects Ischemic Rat Myocardium with a Lower Functional Cost as Compared with Verapamil and Nifedipine", Journal of Cardiovascular Pharmacology; pages 331-340, Vol. 14, No. 2 (1989), describe a model for testing globally ischemic, isolated rat hearts. This model is expected to be a reliable indicator of protection since the laboratory-induced isolation and ischemic event including perfusion with a cardioplegic solution, reasonably duplicates the environment and conditions for the heart during and after a shock or trauma episode. Grover et al. express the efficacy of protective agents as the amount of lactate dehydrogenase (LDH) release and post-ischemic cardiac function. Lactate dehydrogenase is an enzyme released in the heart during an ischemic event and is an index of cardiac cell necrosis. In the Grover et al. model, this is measured during reperfusion and an agent which provides for lower release levels of LDH is considered to offer greater cardioprotection since lower LDH indicates a smaller infarct size. Cardiac function is determined using the double product (DP) of heart rate times the left ventricular developed pressure (LVDP) divided by 1,000.
The lower the value for DP before the ischemic isolation of the heart for a given agent, the more cardiodepressant it is considered to be and the higher the value of DP is during reperfusion, the more cardioprotective the agent is.
Male Sprague-Dawley rats (450-550 g) were used in all experiments. The rats were anesthetized using 30 mg/kg sodium pentobarbital (i.p.). They were intubated and then treated with i.v. heparin (1000 U/kg). While being mechanically ventilated, their hearts were perfused in situ via retrograde cannulation of the aorta. The hearts were then excised and quickly moved to a Langendorff apparatus where they were perfused with Krebs-Henseleit bicarbonate buffer (112 mM […], 25 mM NaHCO₃, 5 mM KCl, 1.2 mM MgSO₄, 1 mM KH₂PO₄, 1.25 mM CaCl₂, 11.5 mM dextrose, and 2 mM pyruvate bubbled with 95% O₂ - 5% CO₂) at a constant pressure (75 mm Hg). A water filled latex balloon attached to a metal cannula was then inserted into the left ventricle and connected to a Statham pressure transducer for measurement of left ventricular pressure. The hearts were allowed to equilibrate for 15 minutes at which time end diastolic pressure (EDP) was adjusted to 5 mm Hg and this was maintained for 5 minutes. Pre-ischemia or pre-drug function, heart rate and coronary flow (extracorporeal electromagnetic flow probe, Carolina Medical Electronics, King, N.C.) were then measured. Cardiac function was determined using the double product of heart rate (HR) X left ventricular developed pressure (LVDP) divided by 1000. Cardiac temperature was maintained throughout the experiment by submerging the hearts in 37°C buffer which was allowed to accumulate in a stoppered, heated chamber.
Once the baseline measurements were taken, the hearts were treated with 10 µM cromakalim, compounds C', C'', E', E'', F', F'' (n = 4 each) or with vehicle buffer (0.01% DMSO, n = 7). All of these hearts were treated with their respective drugs or vehicle for ten minutes. At this time, post-drug cardiac function and flow were measured and then the hearts were made globally ischemic by shutting off the buffer perfusion. The ischemia was maintained for 25 minutes, the hearts were then reperfused with nondrug treated buffer. Reperfusion was maintained for a total of 30 minutes and at this time reperfusion function and flow were again determined.

rat aorta = test: Inhibition of agonist-induced constriction in rat aorta (vasodilation, non-ischemic tissue); settings: concentration inhibiting agonist-induced constriction by 50 percent, normal
From the text: Also included in the TABLE are the IC₅₀(m) values for rat aorta. The IC₅₀ (rat aorta) value is the concentration of the particular compound which inhibits agonist-induced constriction in rat aorta by 50 percent. Thus, the lower values indicate greater vasodilation and it should be noted that these values are for normal, i.e., non-ischemic, tissue. It can be seen that cromakalim with an IC₅₀ of 5.7 x 10⁻⁸ m is a relatively potent vasodilator in non-ischemic tissue.

Row | Compound | FLOW (coronary flow), Pre-ischemic Event (Post Drug) [1] | HR (Heart Rate), Pre-ischemic Event (Post Drug) [1] [beats/min] | LVDP (Left Ventricular Developed Pressure), Pre-ischemic Event (Post Drug) [1] [mmHg] | DP (Double Product), Pre-ischemic Event (Post Drug) [1] | FLOW (coronary flow), Reperfusion (Post-Ischemic Event) [1] | HR (Heart Rate), Reperfusion (Post-Ischemic Event) [1] [beats/min] | LVDP (Left Ventricular Developed Pressure), Reperfusion (Post-Ischemic Event) [1] [mmHg] | DP (Double Product), Reperfusion (Post-Ischemic Event) [1] | LDH (Lactate Dehydrogenase Release), Reperfusion (Post-Ischemic Event) [1] | pIC50 (rat aorta) | other results
1 | CC1(C)Oc2ccc(C#N)cc2[C@@H](NC(=NC#N)Nc2ccccc2)[C@@H]1O [C'"] | 15.2 | 244 | 134 | 32.7 | 13.2 | 244 | 74 | 18.2 | 10.41 | 5.86 | FLOW (coronary flow), Pre-ischemic Event (Post Drug) ([1]; listed as C"): 20.4; HR (Heart Rate), Pre-ischemic Event (Post Drug) ([1]; listed as C"): 250 beats/min; LVDP (Left Ventricular Developed Pressure), Pre-ischemic Event (Post Drug) ([1]; listed as C"): 121 mmHg; DP (Double Product), Pre-ischemic Event (Post Drug) ([1]; listed as C"): 29.8; DP (Double Product), Reperfusion (Post-Ischemic Event) ([1]; listed as C"): 14.8; FLOW (coronary flow), Reperfusion (Post-Ischemic Event) ([1]; listed as C"): 10.1; HR (Heart Rate), Reperfusion (Post-Ischemic Event) ([1]; listed as C"): 240 beats/min; LVDP (Left Ventricular Developed Pressure), Reperfusion (Post-Ischemic Event) ([1]; listed as C"): 62 mmHg; LDH (Lactate Dehydrogenase Release), Reperfusion (Post-Ischemic Event) ([1]; listed as C"): 9.88; pIC50 (rat aorta; listed as C"): 6.35
2 | CC1(C)Oc2ccc(C#N)cc2C(N2CCCC2=O)C1O (stereo not shown) [Cromakalim, cromakalim, reference compound] | 23.9 | 250 | 131 | 33.0 | 13.9 | 234 | 87 | 20.5 | 8.89 | – | pIC50 (rat aorta; Rattus norvegicus): 7.24
3 | CC1(C)Oc2ccc(C#N)cc2[C@@H](NC(=S)Nc2ccccc2)[C@@H]1O [E'] | 15.3 | 236 | 141 | 32.75 | 13.4 | 229 | 55 | 14.83 | 13.46 | 5.77 | FLOW (coronary flow), Pre-ischemic Event (Post Drug) ([1]; listed as E"): 24.8; HR (Heart Rate), Pre-ischemic Event (Post Drug) ([1]; listed as E"): 234 beats/min; LVDP (Left Ventricular Developed Pressure), Pre-ischemic Event (Post Drug) ([1]; listed as E"): 128 mmHg; DP (Double Product), Pre-ischemic Event (Post Drug) ([1]; listed as E"): 30.06; DP (Double Product), Reperfusion (Post-Ischemic Event) ([1]; listed as E"): 18.52; FLOW (coronary flow), Reperfusion (Post-Ischemic Event) ([1]; listed as E"): 17.56; HR (Heart Rate), Reperfusion (Post-Ischemic Event) ([1]; listed as E"): 230 beats/min; LVDP (Left Ventricular Developed Pressure), Reperfusion (Post-Ischemic Event) ([1]; listed as E"): 81 mmHg; LDH (Lactate Dehydrogenase Release), Reperfusion (Post-Ischemic Event) ([1]; listed as E"): 8.77; pIC50 (rat aorta; listed as E"): 6.09
4 | CC1(C)Oc2ccc(C#N)cc2[C@@H](NC(=NC#N)Oc2ccccc2)[C@@H]1O [F'] | 16.0 | 238 | 128 | 30.5 | 10.4 | 212 | 28 | 6.2 | 21.7 | < 4.00 | FLOW (coronary flow), Pre-ischemic Event (Post Drug) ([1]; listed as F"): 28.3; HR (Heart Rate), Pre-ischemic Event (Post Drug) ([1]; listed as F"): 239 beats/min; LVDP (Left Ventricular Developed Pressure), Pre-ischemic Event (Post Drug) ([1]; listed as F"): 159 mmHg; DP (Double Product), Pre-ischemic Event (Post Drug) ([1]; listed as F"): 38.02; DP (Double Product), Reperfusion (Post-Ischemic Event) ([1]; listed as F"): 14.72; FLOW (coronary flow), Reperfusion (Post-Ischemic Event) ([1]; listed as F"): 13.92; HR (Heart Rate), Reperfusion (Post-Ischemic Event) ([1]; listed as F"): 247 beats/min; LVDP (Left Ventricular Developed Pressure), Reperfusion (Post-Ischemic Event) ([1]; listed as F"): 59 mmHg; LDH (Lactate Dehydrogenase Release), Reperfusion (Post-Ischemic Event) ([1]; listed as F"): 10.65; pIC50 (rat aorta; listed as F"): 5.31
